The source of these data is patent US5225559A, “Diarylmethoxypiperidine derivatives” (Ube Industries, Ltd., priority 1990, dated 1993).

The test system of test [1] is ileum shrinkage induced by histamine. As to the kind of experiment: inhibitory effect of the test compounds on the ileum shrinkage induced by histamine. The class given is cell-based, guinea pigs. The conditions noted are these: Cavia porcellus; test compound 10^-7 M; histamine 10^-5 M; isolated ileum, Magnus tank, Tyrode solution; read-out: Inhibition ratio against shrinkage by histamine. How it is done: (§1) Ileum samples removed from guinea pigs were suspended isotonically in a Magnus tank containing a 95% O2 and 5% CO2 saturated Tyrode solution to determine inhibitory effect of the test compounds (10^-7 M) on the ileum shrinkage induced by histamine (10^-5 M) or leukotoriene (10^-8 M). The inhibitory ratio (%) was determined by the following formula. [formula]

Test [2] relates to ileum shrinkage induced by leukotoriene. Put plainly: inhibitory effect of the test compounds on the ileum shrinkage induced by leukotriene. The test is classed as cell-based, guinea pigs. Conditions: Cavia porcellus; test compound 10^-7 M; leukotoriene 10^-8 M; isolated ileum, Magnus tank, Tyrode solution; read-out: Inhibition ratio against shrinkage by leukotriene. How it is done: as §1

Where a name gives a salt, the structure may show the parent alone.

As for `C=CCc1c(OCCCN2CCC(OC(c3ccccc3)c3ccccc3)CC2)ccc2c(=O)cc(C(=O)OCCCC)oc12` [Example 41], the inhibition at 0.1 µM in test [1] and in test [2] was 31% in each case.
As for `COc1cc(C(C)=O)ccc1OCCCN1CCC(OC(c2ccccc2)c2ccccc2)CC1` [Example 2], the inhibition at 0.1 µM in test [1] amounted to 96%; in test [2], 30%.
Regarding `C=CCc1c(OCC(O)CN2CCC(OC(c3ccc(Cl)cc3)c3ccccn3)CC2)ccc(C(C)=O)c1O` (stereo not drawn) [Example 47], the inhibition at 0.1 µM in test [1] is 38%; in test [2], 36%.
On to `COC(=O)c1ccc(OCCCN2CCC(OC(c3ccccc3)c3ccccc3)CC2)cc1` [Example 14], for which the figures for the inhibition at 0.1 µM in test [1] and in test [2] were 69% and 39%, respectively.
As to `CCCc1c(OCC(O)CN2CCC(OC(c3ccc(F)cc3)c3ccc(F)cc3)CC2)ccc(C(C)=O)c1O` (stereo not drawn) [Example 44, 1-{(3-(4-acetyl-3-hydroxy-2-n-propylphenoxy)-2-hydroxy]propyl}-4-[bis(4-fluorophenyl)methoxy]piperidine fumarate], the results for the inhibition at 0.1 µM in test [1] and in test [2] were 43% and 35%, respectively.
As to `C=CCc1c(OCCCN2CCC(OC(c3ccccc3)c3ccccc3)CC2)ccc2c(C)cc(=O)oc12` [Example 7], the figures for the inhibition at 0.1 µM in test [1] and in test [2] were 67% and 51%, respectively.
In the case of `C=CCc1c(OCCCN2CCC(OC(c3ccc(Cl)cc3)c3ccccn3)CC2)ccc(C(C)=O)c1O` (stereo not drawn) [Example 38], the inhibition at 0.1 µM turned out to be 32% in test [1] and 33% in test [2].
Regarding `COC(=O)c1cc(=O)c2cc(C(C)C)cc(NC(=O)CCCN3CCC(OC(c4ccc(F)cc4)c4ccc(F)cc4)CC3)c2o1` [Example 60], the inhibition at 0.1 µM is 58% in test [1] and 37% in test [2].
On to `CCCc1c(OCC(O)CN2CCC(OC(c3ccc(Cl)cc3)c3ccccn3)CC2)ccc(C(C)=O)c1O` (stereo not drawn) [Example 45], for which the values for the inhibition at 0.1 µM in test [1] and in test [2] were 40% and 30%, respectively.
